Activity calls are given as the source filed them. The calls are words filed in the database; no cut-off is given here.
How the values were obtained:
[1] = molecular target: T1, Lethal(3)malignant brain tumor-like protein 3 (Homo sapiens, UniProt Q96JM7); assay: Antagonist activity at His-tagged L3MBTL3 (unknown origin) assessed as inhibition of L3MBTL3/biotinylated H4K20Me2 peptide interaction after 30 mins by AlphaScreen assay
T1 sequence (Q96JM7 whole entry): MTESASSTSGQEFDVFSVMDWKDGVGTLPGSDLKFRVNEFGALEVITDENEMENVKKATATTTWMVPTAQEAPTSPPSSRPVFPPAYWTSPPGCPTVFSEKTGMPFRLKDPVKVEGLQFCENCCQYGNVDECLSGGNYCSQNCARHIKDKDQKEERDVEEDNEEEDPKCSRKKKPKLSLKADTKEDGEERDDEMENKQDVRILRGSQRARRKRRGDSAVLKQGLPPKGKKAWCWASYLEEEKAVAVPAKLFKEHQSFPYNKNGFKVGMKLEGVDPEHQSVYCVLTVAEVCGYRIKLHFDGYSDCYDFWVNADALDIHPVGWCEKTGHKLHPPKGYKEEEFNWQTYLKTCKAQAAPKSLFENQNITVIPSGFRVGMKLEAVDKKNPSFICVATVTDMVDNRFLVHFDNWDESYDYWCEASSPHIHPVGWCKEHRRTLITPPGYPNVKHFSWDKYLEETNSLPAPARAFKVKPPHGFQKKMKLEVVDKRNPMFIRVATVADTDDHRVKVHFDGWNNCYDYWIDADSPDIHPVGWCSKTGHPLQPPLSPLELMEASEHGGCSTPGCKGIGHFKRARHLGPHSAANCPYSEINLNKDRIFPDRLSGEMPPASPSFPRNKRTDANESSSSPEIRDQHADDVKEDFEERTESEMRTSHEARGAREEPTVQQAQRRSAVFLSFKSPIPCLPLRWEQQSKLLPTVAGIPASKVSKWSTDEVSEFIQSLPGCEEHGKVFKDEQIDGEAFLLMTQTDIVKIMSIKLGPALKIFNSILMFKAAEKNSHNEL

[2] = molecular target: T2, MBT domain-containing protein 1 (Homo sapiens, UniProt Q05BQ5); assay: Antagonist activity at MBTD1 (unknown origin) assessed as inhibition of MBTD1/biotinylated H4K20Me1 peptide interaction after 30 mins by AlphaScreen assay
[3] = molecular target: T3, Chromobox protein homolog 7 (Homo sapiens) (UniProt O95931); assay: Antagonist activity at Flag-tagged CBX7 (unknown origin) assessed as inhibition of CBX7/biotinylated H3K9Me3 peptide interaction at 30 uM after 30 mins by AlphaScreen assay
T3 sequence (whole entry): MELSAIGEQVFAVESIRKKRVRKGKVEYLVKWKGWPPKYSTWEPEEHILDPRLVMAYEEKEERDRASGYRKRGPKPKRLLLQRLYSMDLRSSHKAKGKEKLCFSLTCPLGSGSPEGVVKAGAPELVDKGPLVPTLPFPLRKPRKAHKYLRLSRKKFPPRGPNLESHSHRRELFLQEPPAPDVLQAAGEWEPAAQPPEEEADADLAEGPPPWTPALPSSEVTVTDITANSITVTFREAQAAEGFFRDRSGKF

[4] = molecular target: T4, Lethal(3)malignant brain tumor-like protein 4 (Homo sapiens) (UniProt Q8NA19); assay: Antagonist activity at L3MBTL4 (unknown origin) assessed as inhibition of L3MBTL4/biotinylated H2AK36Me1 peptide interaction at 30 uM after 30 mins by AlphaScreen assay
T4 sequence (whole entry): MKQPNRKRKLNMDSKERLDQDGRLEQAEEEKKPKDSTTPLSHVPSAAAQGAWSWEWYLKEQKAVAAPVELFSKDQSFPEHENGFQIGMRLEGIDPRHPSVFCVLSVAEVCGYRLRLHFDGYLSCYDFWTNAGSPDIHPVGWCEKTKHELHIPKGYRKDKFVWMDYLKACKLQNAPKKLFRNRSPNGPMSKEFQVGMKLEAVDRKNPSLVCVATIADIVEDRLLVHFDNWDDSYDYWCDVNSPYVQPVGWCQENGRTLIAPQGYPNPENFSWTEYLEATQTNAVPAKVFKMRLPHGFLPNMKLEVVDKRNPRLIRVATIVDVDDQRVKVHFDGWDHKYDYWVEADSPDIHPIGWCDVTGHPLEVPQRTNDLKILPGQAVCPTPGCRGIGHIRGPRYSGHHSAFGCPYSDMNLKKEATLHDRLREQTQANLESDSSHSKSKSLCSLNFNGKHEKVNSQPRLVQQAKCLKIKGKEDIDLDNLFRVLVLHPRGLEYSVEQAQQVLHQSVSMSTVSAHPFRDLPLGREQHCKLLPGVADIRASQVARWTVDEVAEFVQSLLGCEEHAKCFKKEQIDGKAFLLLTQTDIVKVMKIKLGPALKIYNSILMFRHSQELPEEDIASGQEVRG

[5] = molecular target: T5, Chromobox protein homolog 7 (Homo sapiens, UniProt O95931); assay: Antagonist activity at Flag-tagged CBX7 (unknown origin) assessed as inhibition of CBX7/biotinylated H3K9Me3 peptide interaction after 30 mins by AlphaScreen assay
T5 sequence (O95931 whole entry): T3 sequence (whole entry)

[6] = molecular target: T6, Scm-like with four MBT domains protein 1 (Homo sapiens) (UniProt Q9UHJ3); assay: Antagonist activity at SFMBT1 (unknown origin) assessed as inhibition of SFMBT1/biotinylated H3K9Me1 peptide interaction at 30 uM after 30 mins by AlphaScreen assay
T6 sequence (whole entry): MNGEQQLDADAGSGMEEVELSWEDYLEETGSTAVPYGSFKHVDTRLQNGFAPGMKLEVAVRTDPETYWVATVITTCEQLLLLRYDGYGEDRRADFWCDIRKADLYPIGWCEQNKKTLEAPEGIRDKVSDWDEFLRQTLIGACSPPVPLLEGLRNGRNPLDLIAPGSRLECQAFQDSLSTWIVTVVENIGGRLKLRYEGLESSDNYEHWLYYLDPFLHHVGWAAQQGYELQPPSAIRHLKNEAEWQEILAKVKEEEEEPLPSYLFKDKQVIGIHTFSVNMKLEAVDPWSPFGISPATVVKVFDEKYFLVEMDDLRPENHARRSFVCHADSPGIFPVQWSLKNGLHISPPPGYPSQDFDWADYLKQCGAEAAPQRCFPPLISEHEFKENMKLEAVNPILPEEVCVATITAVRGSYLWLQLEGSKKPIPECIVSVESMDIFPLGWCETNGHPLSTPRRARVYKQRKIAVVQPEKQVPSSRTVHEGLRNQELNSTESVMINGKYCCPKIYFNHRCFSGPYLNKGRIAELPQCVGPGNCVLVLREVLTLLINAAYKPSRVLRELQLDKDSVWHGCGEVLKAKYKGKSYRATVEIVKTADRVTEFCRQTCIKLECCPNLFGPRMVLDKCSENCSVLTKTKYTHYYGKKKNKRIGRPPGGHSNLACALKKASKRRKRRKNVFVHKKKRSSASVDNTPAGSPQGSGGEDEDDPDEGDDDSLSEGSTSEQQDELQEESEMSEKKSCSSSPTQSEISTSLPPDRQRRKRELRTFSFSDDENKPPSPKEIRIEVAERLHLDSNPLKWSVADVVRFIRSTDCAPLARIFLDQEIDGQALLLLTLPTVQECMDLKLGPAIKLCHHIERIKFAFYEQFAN

[7] = molecular target: T7, Lethal(3)malignant brain tumor-like protein 4 (Homo sapiens, UniProt Q8NA19); assay: Antagonist activity at L3MBTL4 (unknown origin) assessed as inhibition of L3MBTL4/biotinylated H2AK36Me1 peptide interaction after 30 mins by AlphaScreen assay
T7 sequence (Q8NA19 whole entry): T4 sequence (whole entry)

[8] = molecular target: T8, Scm-like with four MBT domains protein 1 (Homo sapiens, UniProt Q9UHJ3); assay: Antagonist activity at SFMBT1 (unknown origin) assessed as inhibition of SFMBT1/biotinylated H3K9Me1 peptide interaction after 30 mins by AlphaScreen assay
T8 sequence (Q9UHJ3 whole entry): T6 sequence (whole entry)

[9] = molecular target: T2, MBT domain-containing protein 1; assay: Antagonist activity at MBTD1 (unknown origin) assessed as inhibition of MBTD1/biotinylated H4K20Me1 peptide interaction at 30 uM after 30 mins by AlphaScreen assay

T2 sequence (Q05BQ5 whole entry, the tested form may be a part): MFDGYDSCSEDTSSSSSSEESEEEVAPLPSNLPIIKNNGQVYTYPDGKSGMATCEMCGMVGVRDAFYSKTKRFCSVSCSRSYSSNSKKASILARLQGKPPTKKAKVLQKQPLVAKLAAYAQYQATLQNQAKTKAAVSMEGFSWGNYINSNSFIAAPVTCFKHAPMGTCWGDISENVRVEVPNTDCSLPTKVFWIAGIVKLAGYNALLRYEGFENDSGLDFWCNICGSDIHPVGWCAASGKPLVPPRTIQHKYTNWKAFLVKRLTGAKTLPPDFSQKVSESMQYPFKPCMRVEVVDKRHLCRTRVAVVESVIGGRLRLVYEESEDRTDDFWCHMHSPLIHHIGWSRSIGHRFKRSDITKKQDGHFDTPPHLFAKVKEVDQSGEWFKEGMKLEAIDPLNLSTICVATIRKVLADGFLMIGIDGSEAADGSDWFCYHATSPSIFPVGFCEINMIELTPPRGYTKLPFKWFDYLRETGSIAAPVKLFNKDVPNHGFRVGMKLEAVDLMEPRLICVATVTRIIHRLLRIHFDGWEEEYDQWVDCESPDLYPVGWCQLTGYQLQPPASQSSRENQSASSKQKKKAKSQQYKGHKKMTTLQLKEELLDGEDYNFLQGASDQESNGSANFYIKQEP

Row | Compound | IC50 [1] | IC50 [2] | inhibition [3] | inhibition [4] | IC50 [5] | inhibition [6] | IC50 [7] | IC50 [8] | inhibition [9]
1 | CNC(=O)c1cccc(C(=O)N2CCC(N3CCCC3)CC2)c1 | 6.4 µM | > 30 µM | inactive | 32% | > 30 µM | inactive | > 30 µM | > 30 µM | 21%
2 | O=C(c1cccc(Br)c1)N1CC2CCC(C1)C2N1CCCC1 (stereo not given) | 3.6 µM | > 30 µM | inactive | 16% | > 30 µM | inactive | > 30 µM | > 30 µM | 31%
3 | c1ccc(C(c2ccccc2)N2CCC(N3CCCC3)CC2)cc1 | 2.4 µM | > 30 µM | inactive | 17% | > 30 µM | inactive | > 30 µM | > 30 µM | 36%
4 | O=C(c1ccccc1)N1CCC(N2CCCC2)CC1 | 6.2 µM | > 30 µM | inactive | 40% | > 30 µM | inactive | > 30 µM | > 30 µM | 22%
5 | O=C(c1cncc(Br)c1)N1CCC(N2CCCC2)CC1 | 4.8 µM | > 30 µM | 9% | 41% | > 30 µM | inactive | > 30 µM | > 30 µM | 23%
6 | O=C(c1cccc(Br)c1)N1CCCC(N2CCCC2)CC1 (stereo not given) | 6.7 µM | 15.2 µM | 13% | 28% | > 30 µM | inactive | > 30 µM | > 30 µM | 
7 | O=C(c1ccc(Br)cc1)N1CCC(N2CCCC2)CC1 | 4.1 µM | > 30 µM | inactive | 30% | > 30 µM | inactive | > 30 µM | > 30 µM | 24%
8 | O=C(c1ccccc1Br)N1CCC(N2CCCC2)CC1 | 6.8 µM | > 30 µM | 17% | 29% | > 30 µM | inactive | > 30 µM | > 30 µM | 31%
9 | O=C(c1cccc(Br)c1)N1CCC(N2CC=CC2)CC1 | 8.7 µM | > 30 µM | 18% | 28% | > 30 µM | inactive | > 30 µM | > 30 µM | 24%
